From paper PMC9865825, “Synthesis and Antiparasitic Activity of New Trithiolato-Bridged Dinuclear Ruthenium(II)-arene-carbohydrate Conjugates” (Molecules, 2023)
Where two headings read alike, the source gives them in different places.

Legend:
[1] = system: T. gondii β-gal tachyzoites; design: method as in PMID 34144354, PMID 32347622, doi:10.3390/inorganics9080059, PMID 36500266; conditions: cited from earlier work; for T. Gondii β-gal Growth (%): tachyzoites in HFF, vs 0.1% DMSO control = 100%
[2] = system: human foreskin fibroblasts (HFF); design: method as in PMID 34144354, PMID 32347622, doi:10.3390/inorganics9080059, PMID 36500266; conditions: cited from earlier work; for HFF Viability (%): non-infected HFF, vs 0.1% DMSO control = 100%; for HFF Viability at 2.5 µM (%): control 0.25% DMSO = 100%
[3] = Stability in DMSO-d6 followed by 1H NMR; conditions: 25 °C, 5 min and more than 1 month after sample preparation
[4] = system: T. gondii β-gal tachyzoites; assay: In vitro proliferation of T. gondii β-gal tachyzoites in HFF, β-galactosidase colorimetric test (primary screening and IC50); assay type: cell-based, Toxoplasma gondii; conditions: for T. Gondii β-gal Growth (%): 72 h, tachyzoites in HFF, vs 0.1% DMSO control = 100%; for IC50 fold lower compared to pyrimethamine: T. gondii β-gal, pyrimethamine IC50 = 0.326 µM; for IC50: eight serial concentrations 7 nM to 1 µM
Description: In a primary screening, each compound was evaluated at two concentrations 0.1 and 1 µM and added to the media prior to the infection as previously described. Control non-infected non-treated HFF cultures and T. gondii β-gal infected but not-treated cultures were cultivated in complete medium containing 0.01 or 0.1% DMSO. The 96-well plates were incubated for 72 h at 37 °C/5% CO2 as previously described.
For the IC50 determination on T. gondii β-gal, eight serial concentrations ranging from 7 nM to 1 μM were tested for each selected compound as previously described and the β-galactosidase assay was performed as reported. Briefly, infected HFF cultures in 96-well plates were lysed with PBS containing 0.05% Triton X-100. Then the substrate chlorophenolred-β-D-galactopyranoside (CPRG; Roche Diagnostics, Rotkreuz, Switzerland) was added in a final concentration of 0.5 mM. Absorption was measured at 570 nm wavelength using an EnSpire® multimode plate reader (PerkinElmer, Inc., Waltham, MA, USA).

[5] = system: human foreskin fibroblasts (HFF); assay: in vitro
Description: (§1) The viability of treated HFF was measured by the alamarBlue metabolic assay, and the proliferation of T. gondii β-gal was quantified by the β-galactosidase colorimetric test. In both cases, results are expressed as percentage (%) compared to control parasitic and host cells treated with 0.1% DMSO for which proliferation and viability were set to 100% (Table 1).
(§2) All tissue culture media were purchased from Gibco-BRL, and biochemical agents from Sigma-Aldrich. […] Transgenic T. gondii β-gal tachyzoites (expressing the β-galactosidase gene from Escherichia coli) from RH strain were kindly provided by Prof.
(§3) The screening sequence for the compounds was described in previous reports. All compounds were prepared as 1 mM stock solutions from powder in dimethyl sulfoxide (DMSO, Sigma, St. Louis, MO, USA). For in vitro activity and cytotoxicity assays, HFF were seeded at 5 × 10^3/well in 96 well plates and allowed to grow to confluence in complete culture medium at 37 °C and 5% CO2.
(§4) All calculations were performed using the corresponding software tool contained in the Excel software package (Microsoft, Redmond, WA, USA). […] Then the medium was removed, the plates were washed once with PBS and 200 μL of resazurin (1:200 dilution in PBS) were added to each well. […] Fluorescence was measured at two different time points: T0 as starting timepoint and T5h as at 5 h later. Relative fluorescence units were calculated from time points with linear increases.

in vitro = conditions: human
Description: as §1, §2, §3, §4

SMILES	T. Gondii β-gal Growth (%) ([1]; 0.1 µM)	T. Gondii β-gal Growth (%) ([1]; 1 µM)	IC50 [1] [nM]	HFF Viability (%) ([2]; 0.1 µM)	HFF Viability (%) ([2]; 1 µM)	T. Gondii β-gal Growth (%) ([4]; 0.1 µM)	T. Gondii β-gal Growth (%) ([4]; 1 µM)	IC50 [4] [nM]	HFF Viability (%) ([5]; 0.1 µM)	HFF Viability (%) ([5]; 1 µM)	other results
CC(C)(C)c1ccc(C[S+]2[Ru-]3[S+](Cc4ccc(C(C)(C)C)cc4)[Ru-]2[S+]3c2ccccc2CO)cc1.Cc1ccc(C(C)C)cc1.Cc1ccc(C(C)C)cc1.[Cl-] (centres unmarked) [Compound 5]	2 ± 0	1 ± 0	38	80 ± 1	69 ± 6						HFF Viability at 2.5 µM (%) [2]: 4%
CC(=O)OC[C@H]1O[C@@H](OCCCc2cn(Cc3ccccc3[S-])nn2)[C@H](OC(C)=O)[C@@H](OC(C)=O)[C@H]1OC(C)=O.CC(C)(C)c1ccc(C[S-])cc1.CC(C)(C)c1ccc(C[S-])cc1.Cc1ccc(C(C)C)cc1.Cc1ccc(C(C)C)cc1.[Cl-].[Ru+2].[Ru+2] [Compound 26]						89 ± 1	0 ± 0	153	98 ± 1	99 ± 1	Stability in DMSO-d6 (1H NMR spectra) [3]: no significant modifications; IC50 fold lower compared to pyrimethamine [4]: 2 fold; HFF Viability at 2.5 µM (%) [5]: 97%
CC(=O)OC[C@H]1O[C@@H](n2cc(CCCC(=O)Nc3ccc([S-])cc3)nn2)[C@H](OC(C)=O)[C@@H](OC(C)=O)[C@@H]1OC(C)=O.CC(C)(C)c1ccc(C[S-])cc1.CC(C)(C)c1ccc(C[S-])cc1.Cc1ccc(C(C)C)cc1.Cc1ccc(C(C)C)cc1.[Cl-].[Ru+2].[Ru+2] [Compound 20]						100 ± 1	1 ± 2	110	98 ± 1	99 ± 0	Stability in DMSO-d6 (1H NMR spectra) [3]: no significant modifications; HFF Viability at 2.5 µM (%) [5]: 77%
CC(C)(C)c1ccc(C[S+]2[Ru-]3[S+](Cc4ccc(C(C)(C)C)cc4)[Ru-]2[S+]3c2ccccc2CN=[N+]=[N-])cc1.Cc1ccc(C(C)C)cc1.Cc1ccc(C(C)C)cc1.[Cl-] (centres unmarked) [Compound 9]	9 ± 1	1 ± 1	48	96 ± 1	64 ± 1						HFF Viability at 2.5 µM (%) [2]: 11%
CC(=O)OC[C@H]1O[C@@H](OCCCn2cc(CCCC(=O)Nc3ccc([S-])cc3)nn2)[C@H](OC(C)=O)[C@@H](OC(C)=O)[C@H]1OC(C)=O.CC(C)(C)c1ccc(C[S-])cc1.CC(C)(C)c1ccc(C[S-])cc1.Cc1ccc(C(C)C)cc1.Cc1ccc(C(C)C)cc1.[Cl-].[Ru+2].[Ru+2] [Compound 23]						85 ± 1	1 ± 0	32	99 ± 1	101 ± 1	IC50 fold lower compared to pyrimethamine [4]: 10 fold; HFF Viability at 2.5 µM (%) [5]: 92%
CC(C)(C)c1ccc(C[S-])cc1.CC(C)(C)c1ccc(C[S-])cc1.Cc1ccc(C(C)C)cc1.Cc1ccc(C(C)C)cc1.O=C(O)Cc1ccc([S-])cc1.[Cl-].[Ru+2].[Ru+2] [Compound 4]	114 ± 2	110 ± 2		91 ± 4	73 ± 1						
C#CCCCC(=O)Oc1ccc([S-])cc1.CC(C)(C)c1ccc(C[S-])cc1.CC(C)(C)c1ccc(C[S-])cc1.Cc1ccc(C(C)C)cc1.Cc1ccc(C(C)C)cc1.[Cl-].[Ru+2].[Ru+2] [Compound 6]						4 ± 0	0 ± 0	23			
CCc1nc(N)nc(N)c1-c1ccc(Cl)cc1 [Pyrimethamine, reference compound]			326								
C#CCNC(=O)Cc1ccc([S-])cc1.CC(C)(C)c1ccc(C[S-])cc1.CC(C)(C)c1ccc(C[S-])cc1.Cc1ccc(C(C)C)cc1.Cc1ccc(C(C)C)cc1.[Cl-].[Ru+2].[Ru+2] [Compound 8]	52 ± 13	3 ± 1		71 ± 2	46 ± 6						
CC(=O)OC[C@H]1O[C@@H](N=[N+]=[N-])[C@H](OC(C)=O)[C@@H](OC(C)=O)[C@@H]1OC(C)=O [Compound 10, 2,3,4,6-tetra-O-acetyl-β-D-glucopyranosyl azide]						101 ± 1	99 ± 0				Antiparasitic activity (in words) ([4]; 0.1 and 1 µM): neither antiparasitic activity; viability at 72 h, 0.1 µM (in vitro): 98 ± 1%; viability at 72 h, 1 µM (in vitro): 99%
CC(C)(C)c1ccc(C[S+]2[Ru-]3[S+](Cc4ccc(C(C)(C)C)cc4)[Ru-]2[S+]3c2ccc(N)cc2)cc1.Cc1ccc(C(C)C)cc1.Cc1ccc(C(C)C)cc1.[Cl-] (centres unmarked) [Compound 3]	57 ± 1	2 ± 0	153	74 ± 2	48 ± 1						HFF Viability at 2.5 µM (%) [2]: 51%
CC(=O)OC[C@H]1O[C@@H](n2cc(CCCC(=O)Oc3ccc([S-])cc3)nn2)[C@H](OC(C)=O)[C@@H](OC(C)=O)[C@@H]1OC(C)=O.CC(C)(C)c1ccc(C[S-])cc1.CC(C)(C)c1ccc(C[S-])cc1.Cc1ccc(C(C)C)cc1.Cc1ccc(C(C)C)cc1.[Cl-].[Ru+2].[Ru+2] [Compound 19]						9 ± 1	0 ± 0	18	102 ± 1	97 ± 1	HFF Viability at 2.5 µM (%) [5]: 29%
CC(C)(C)c1ccc(C[S-])cc1.CC(C)(C)c1ccc(C[S-])cc1.Cc1ccc(C(C)C)cc1.Cc1ccc(C(C)C)cc1.Oc1ccc([S-])cc1.[Cl-].[Ru+2].[Ru+2] [Compound 2]	66 ± 14	2 ± 0	117	76 ± 6	46 ± 6						HFF Viability at 2.5 µM (%) [2]: 56%
CC(=O)OC[C@H]1O[C@@H](OCCCc2cn(Cc3ccccc3[S-])nn2)[C@H](OC(C)=O)[C@@H](OC(C)=O)[C@@H]1OC(C)=O.CC(C)(C)c1ccc(C[S-])cc1.CC(C)(C)c1ccc(C[S-])cc1.Cc1ccc(C(C)C)cc1.Cc1ccc(C(C)C)cc1.[Cl-].[Ru+2].[Ru+2] [Compound 25]						75 ± 2	27 ± 0		98 ± 1	97 ± 1	Stability in DMSO-d6 (1H NMR spectra) [3]: no significant modifications
CC(=O)OC[C@H]1O[C@@H](OCCn2cc(CCCC(=O)Nc3ccc([S-])cc3)nn2)[C@H](OC(C)=O)[C@@H](OC(C)=O)[C@@H]1OC(C)=O.CC(C)(C)c1ccc(C[S-])cc1.CC(C)(C)c1ccc(C[S-])cc1.Cc1ccc(C(C)C)cc1.Cc1ccc(C(C)C)cc1.[Cl-].[Ru+2].[Ru+2] [Compound 21]						87 ± 1	1 ± 0	87	100 ± 1	101 ± 0	
CC(=O)OC[C@H]1O[C@@H](OCCn2cc(CCCC(=O)Nc3ccc([S-])cc3)nn2)[C@H](OC(C)=O)[C@@H](OC(C)=O)[C@H]1OC(C)=O.CC(C)(C)c1ccc(C[S-])cc1.CC(C)(C)c1ccc(C[S-])cc1.Cc1ccc(C(C)C)cc1.Cc1ccc(C(C)C)cc1.[Cl-].[Ru+2].[Ru+2] [Compound 22]						73 ± 1	2 ± 0	298	100 ± 0	101 ± 0	Stability in DMSO-d6 (1H NMR spectra) [3]: no significant modifications; HFF Viability at 2.5 µM (%) [5]: 73%
C#CCCCC(=O)Nc1ccc([S+]2[Ru-]3[S+](Cc4ccc(C(C)(C)C)cc4)[Ru-]2[S+]3Cc2ccc(C(C)(C)C)cc2)cc1.Cc1ccc(C(C)C)cc1.Cc1ccc(C(C)C)cc1.[Cl-] (centres unmarked) [Compound 7]	21 ± 2	0 ± 0	38								
